Measurements reported in the NIST ThermoML archive (doi:10.1016/j.tca.2018.03.018).
± gives the expanded uncertainty stated by the source.

Experiments:
[1] = Crystal; DSC
[2] = Molar enthalpy of transition or fusion; conditions: Crystal; DSC

Triple point temperature [1]: 325.66 ± 1 K | Molar enthalpy of transition or fusion [2]: 12 ± 0.335 kcal/mol
Structure (SMILES): CCCCCCCCCCCCCCCCCC(=O)O [octadecanoic acid]
